Experimental data: ChEMBL document CHEMBL4715817, “Python Cathelicidin CATHPb1 Protects against Multidrug-Resistant Staphylococcal Infections by Antimicrobial-Immunomodulatory Duality” (J Med Chem, 2018)
Activity calls are given as the source filed them. The calls are words filed in the database; no cut-off is given here. Peptide text beside a SMILES is read from it.

Key:
[1] = Immunomodulatory activity in mouse peritoneal macrophage assessed as inhibition of LPS-induced IL-6 level measured after 24 hrs by ELISA; type: functional; parameters: scale not given: the % may be the effect or the level left; conditions: dose 5-20 µg/ml, at 5 to 20 µg/mL
Macrophage [2] = assay: Immunomodulatory activity in mouse peritoneal macrophage assessed as inhibition of LPS-induced TNF-alpha level at 5 to 20 ug/ml measured after 6 hrs by qRT-PCR analysis; type: functional, tissue-based; conditions: dose 5-20 µg/ml
Macrophage [3] = assay: Immunomodulatory activity in mouse peritoneal macrophage assessed as inhibition of LPS-induced IL-1beta level at 5 to 20 ug/ml measured after 6 hrs by qRT-PCR analysis; type: functional, tissue-based; conditions: dose 5-20 µg/ml
Macrophage [4] = assay: Immunomodulatory activity in mouse peritoneal macrophage assessed as inhibition of LPS-induced IL-6 level at 5 to 20 ug/ml measured after 6 hrs by qRT-PCR analysis; type: functional, tissue-based; conditions: dose 5-20 µg/ml
Macrophage [5] = assay: Immunomodulatory activity in mouse peritoneal macrophage assessed as inhibition of LPS-induced MCP-1 level at 5 to 20 ug/ml measured after 6 hrs by qRT-PCR analysis; type: functional, tissue-based; conditions: dose 5-20 µg/ml
Macrophage [6] = assay: Immunomodulatory activity in mouse peritoneal macrophage assessed as inhibition of LPS-induced TNF-alpha level at 5 to 20 ug/ml measured after 24 hrs by ELISA; type: functional, tissue-based; conditions: dose 5-20 µg/ml
Macrophage [7] = assay: Immunomodulatory activity in mouse peritoneal macrophage assessed as inhibition of LPS-induced IL-1beta level at 5 to 20 ug/ml measured after 24 hrs by ELISA; type: functional, tissue-based; conditions: dose 5-20 µg/ml
Macrophage [8] = assay: Immunomodulatory activity in mouse peritoneal macrophage assessed as inhibition of LPS-induced IL-6 level at 5 to 20 ug/ml measured after 24 hrs by ELISA; type: functional, tissue-based; conditions: dose 5-20 µg/ml
Macrophage [9] = assay: Immunomodulatory activity in mouse peritoneal macrophage assessed as inhibition of LPS-induced MCP-1 level at 5 to 20 ug/ml measured after 24 hrs by ELISA; type: functional, tissue-based; conditions: dose 5-20 µg/ml
Macrophage [10] = assay: Immunomodulatory activity in mouse peritoneal macrophage assessed as inhibition of LPS-induced TNF-alpha level at 20 ug/ml measured after 24 hrs by ELISA; type: functional, tissue-based; conditions: dose 20.0 µg/ml
Macrophage [11] = assay: Immunomodulatory activity in mouse peritoneal macrophage assessed as inhibition of LPS-induced IL-1beta level at 20 ug/ml measured after 24 hrs by ELISA; type: functional, tissue-based; conditions: dose 20.0 µg/ml
Macrophage [12] = assay: Immunomodulatory activity in mouse peritoneal macrophage assessed as inhibition of LPS-induced IL-6 level at 20 ug/ml measured after 24 hrs by ELISA; type: functional, tissue-based; conditions: dose 20.0 µg/ml
Macrophage [13] = assay: Immunomodulatory activity in mouse peritoneal macrophage assessed as inhibition of LPS-induced TNF-alpha level at 20 ug/ml measured after 6 hrs by qRT-PCR analysis; type: functional, tissue-based; conditions: dose 20.0 µg/ml
Macrophage [14] = assay: Immunomodulatory activity in mouse peritoneal macrophage assessed as inhibition of LPS-induced IL-1beta level at 20 ug/ml measured after 6 hrs by qRT-PCR analysis; type: functional, tissue-based; conditions: dose 20.0 µg/ml
Macrophage [15] = assay: Immunomodulatory activity in mouse peritoneal macrophage assessed as inhibition of LPS-induced IL-6 level at 20 ug/ml measured after 6 hrs by qRT-PCR analysis; type: functional, tissue-based; conditions: dose 20.0 µg/ml
Staphylococcus aureus = assay: In vivo antibacterial activity against methicillin sensitive Staphylococcus aureus ATCC 25923 infected in kunming mouse assessed as increase in survival rate at 10 mg/kg, ip administered 4 hrs after infection and measured up to 7 days after infection relative to control; type: functional; conditions: time day <=7

| Compound | Activity [1] | inhibition (Macrophage [2]) | inhibition (Macrophage [3]) | inhibition (Macrophage [4]) | inhibition (Macrophage [5]) | inhibition (Macrophage [6]) | inhibition (Macrophage [7]) | inhibition (Macrophage [8]) | inhibition (Macrophage [9]) | inhibition (Macrophage [10]) | inhibition (Macrophage [11]) | inhibition (Macrophage [12]) | inhibition (Macrophage [13]) | inhibition (Macrophage [14]) | inhibition (Macrophage [15]) | Activity (Staphylococcus aureus) |
| --- | --- | --- | --- | --- | --- | --- | --- | --- | --- | --- | --- | --- | --- | --- | --- | --- |
| CC[C@H](C)[C@H](NC(=O)[C@H](CCCNC(=N)N)NC(=O)[C@H](Cc1c[nH]c2ccccc12)NC(=O)CNC(=O)[C@H](Cc1ccc(O)cc1)NC(=O)[C@H](CCCNC(=N)N)NC(=O)[C@H](CCCNC(=N)N)NC(=O)[C@H](C)NC(=O)[C@H](Cc1ccccc1)NC(=O)[C@H](CCCNC(=N)N)NC(=O)CNC(=O)[C@H](C)NC(=O)CNC(=O)[C@H](CCCNC(=N)N)NC(=O)[C@@H](NC(=O)[C@H](Cc1ccccc1)NC(=O)[C@H](CCCNC(=N)N)NC(=O)[C@H](CCCNC(=N)N)NC(=O)[C@H](Cc1c[nH]c2ccccc12)NC(=O)[C@H](CCCNC(=N)N)NC(=O)[C@H](CO)NC(=O)[C@H](CCCNC(=N)N)NC(=O)[C@@H](N)[C@@H](C)O)[C@@H](C)CC)C(=O)N[C@@H](C)C(=O)N[C@@H](CC(C)C)C(=O)NCC(=O)N[C@@H](CC(C)C)C(=O)N[C@H](C(=O)NCC(=O)O)C(C)C (H-TRSRWRRFIRGAGRFARRYGWRIALGLVG-OH) | 65.59% | Active | Active | Active | Active | Active | Active | Active | Active | – | – | – | – | – | – | – |
| CSCC[C@H](NC(=O)[C@H](C)NC(=O)[C@H](CCCNC(=N)N)NC(=O)[C@H](CC(C)C)NC(=O)[C@H](CCCNC(=N)N)NC(=O)[C@H](CCCNC(=N)N)NC(=O)[C@H](CCC(N)=O)NC(=O)[C@@H]1CCCN1C(=O)[C@H](C)NC(=O)[C@H](C)NC(=O)[C@@H](N)CCCNC(=N)N)C(=O)N[C@@H](C)C(=O)N[C@@H](CCCNC(=N)N)C(=O)N[C@@H](CC(C)C)C(=O)N[C@@H](CCCCN)C(=O)N[C@@H](CCCCN)C(=O)N[C@@H](Cc1ccccc1)C(=O)N[C@@H](C)C(=O)N[C@@H](CCC(=O)O)C(=O)N[C@@H](C)C(=O)NCC(=O)NCC(=O)N[C@@H](C)C(=O)N[C@@H](CC(=O)O)C(=O)N1CCC[C@H]1C(=O)N[C@@H](CC(=O)O)C(=O)N[C@@H](CO)C(=O)NCC(=O)NCC(=O)N[C@@H](CC(C)C)C(=O)N[C@@H](CCCNC(=N)N)C(=O)N[C@@H](C)C(=O)N[C@@H](CCCNC(=N)N)C(=O)N[C@@H](Cc1ccccc1)C(=O)N1CCC[C@H]1C(=O)N[C@@H](CCC(=O)O)C(=O)N[C@@H](CCCNC(=N)N)C(=O)O (H-RAAPQRRLRAMARLKKFAEAGGADPDSGGLRARFPER-OH) | – | – | – | – | – | – | – | – | – | Active | Active | Active | Active | Active | Active | – |
| CN[C@H](CC(C)C)C(=O)N[C@H]1C(=O)N[C@@H](CC(N)=O)C(=O)N[C@H]2C(=O)N[C@H]3C(=O)N[C@H](C(=O)N[C@H](C(=O)O)c4cc(O)cc(O)c4-c4cc3ccc4O)[C@H](O)c3ccc(c(Cl)c3)Oc3cc2cc(c3O[C@@H]2O[C@H](CO)[C@@H](O)[C@H](O)[C@H]2O[C@H]2C[C@](C)(N)[C@H](O)[C@H](C)O2)Oc2ccc(cc2Cl)[C@H]1O [VANCOMYCIN] | – | – | – | – | – | – | – | – | – | – | – | – | – | – | – | 35% |
| CC[C@H](C)[C@H](NC(=O)[C@H](CO)NC(=O)[C@H](CO)NC(=O)CNC(=O)CNC(=O)CNC(=O)[C@H](C)NC(=O)[C@H](Cc1ccccc1)NC(=O)[C@H](Cc1ccccc1)NC(=O)[C@H](CCCCN)NC(=O)[C@H](CCCCN)NC(=O)[C@H](CC(C)C)NC(=O)[C@H](CCCNC(=N)N)NC(=O)[C@H](CCCNC(=N)N)NC(=O)[C@H](CCSC)NC(=O)[C@H](Cc1ccccc1)NC(=O)[C@H](CCCCN)NC(=O)[C@H](CCCNC(=N)N)NC(=O)[C@H](Cc1ccccc1)NC(=O)CNC(=O)[C@H](CC(N)=O)NC(=O)[C@H](CCCNC(=N)N)NC(=O)[C@@H](N)CCCCN)C(=O)N[C@@H](C)C(=O)N[C@@H](Cc1cnc[nH]1)C(=O)N[C@H](C(=O)N[C@@H](CCCCN)C(=O)N[C@@H](CC(C)C)C(=O)N[C@@H](Cc1cnc[nH]1)C(=O)O)[C@@H](C)CC (H-KRNGFRKFMRRLKKFFAGGGSSIAHIKLH-OH) | – | Active | Active | Active | Active | Active | Active | Active | Active | – | – | – | – | – | – | – |
